Measurements from patent US20190134060A1, “25-HYDROXYCHOLESTEROL AND METHODS OF USE THEREOF” (priority 2016, published 2019).
“Also recorded” adds a separate entry of the source.

What was measured:
[1] = system: hippocampal cultures; test: NMDA-induced cell death (NMDA toxicity) in hippocampal cultures; type: cell-based
Procedure: If the neuroprotective effects of 25-HC are entirely through antagonism of NMDAR function and endogenous, local 24S-HC, it would be expected that 25-HC should also reduce direct NMDA-induced cell death. NMDA was exogenously applied at either 8 μM or 20 μM to induce mild or severe toxicity (FIG. 5A).
(§1) Cell culture. All animal care and experimental procedures were consistent with National Institutes of Health guidelines and were approved by the Washington University Animal Studies Committee. Studies involving animals are reported in accordance with the ARRIVE guidelines for reporting experiments involving animals (12, 13). Rat or mouse hippocampal cultures were prepared from postnatal day 1 to 3, pups of both sexes (85% female) anaesthetized with isoflurane. Hippocampal slices (500 μm thickness) were digested with 1 mg⋅mL^−1 papain in oxygenated LeibovitzL-15 medium (Life Technologies, Gaithersburg, Md., USA). Tissue was mechanically triturated in modified Eagle's medium (Life Technologies) containing 5% horse serum, 5% FCS, 17 mM D glucose, 400 μM glutamine, 50 U⋅mL^−1 penicillin and 50 μg⋅mL^−1 streptomycin. Cells were seeded in modified Eagle's medium at a density of ˜650 cells per mm^2 (onto 25 mm cover glasses coated with 5 mg⋅mL^−1 collagen or 0.1 mg⋅mL^−1 poly-D-lysine with 1 mg⋅mL^−1 laminin). Cultures were incubated at 37° C. in a humidified chamber with 5% CO2/95% air. Cytosine arabinoside (6.7 μM) was added 3-4 days after plating to inhibit glial proliferation. The following day, half of the culture medium was replaced with Neurobasal medium (Life Technologies) plus B27 supplement (Life Technologies).
(§2) Data analysis. Five 10× microscope fields were quantified per condition per experiment, yielding>100 total neurons for each condition. Ratios of healthy neurons were quantified as the fraction of PI-negative neuronal nuclei to total neuronal nuclei. Automated cell counting algorithms (ImageJ software, National Institutes of Health, Bethesda, Md., USA) were used for cell counts. Toxicity experiments were treated as a dependent sample design (32) in which sibling cultures plated in identical media and exposed to OGD at the same time were compared by repeated measures statistics. Results are shown as means±SEM. Comparative statistics were performed with Student's t-test or one-way repeated measures ANOVA where indicated.

[2] = system: NMDARs; test: Modulation of NMDAR function
[3] = system: NMDARs; conditions: cited from earlier work
[4] = system: rat hippocampal cultures; test: Oxygen-glucose deprivation (OGD, 2.5 hours)-induced cell death, PI/Hoechst survival; type: cell-based; conditions: for OGD-induced cell death exacerbated by 24S-HC, effect of NMDAR antagonist: co-treatment prior to and during OGD
Procedure: as §1
(§3) Oxygen-glucose deprivation. Mass cultures (13-14 DIV) were exposed to oxygen-glucose deprivation (OGD), in which original medium containing 25 mM glucose was exchanged for fresh MEM medium […] and exposed to a sealed chamber (Billups-Rothenberg, Del Mar, Calif., USA), humidified and saturated with 95% nitrogen and 5% CO2 at 37° C., for 2.5 hours. The gas exchange followed the specifications of the chamber manufacturer (flow of 20 L⋅minute^−1 for 4 minutes to achieve 100% gas exchange). In some experiments, original medium was exchanged for fresh MEM medium containing the specified drugs immediately prior to OGD exposure. Controls were incubated in MEM medium without oxygen deprivation. Following OGD or control treatment, cells were returned to their original medium and incubated under standard culture conditions until the cell death assay (24 hours later). Hoechst 33342 (5 μM) was used to identify all nuclei and propidium iodide (PI, 3 μM) for 30 minutes to stain nuclei of cells with compromised membranes.
as §2

[5] = system: hippocampal cultures; test: More severe OGD (3 hours) with NMDAR blockade by MK-801, cell death; type: cell-based; conditions: for normalized survival: n=9 cultures
Procedure: As a final test, a more severe OGD insult was applied by increasing OGD exposure time from 2.5 hours to 3 hours to help emphasize any NMDAR-independent mechanisms of OGD-induced death.
as §3, §2

[6] = system: hippocampal cultures; test: H2O2 induced toxicity (model of oxidative damage); type: cell-based; conditions: H2O2 100 μM, 1 hour treatment; in the presence of MK-801
Procedure: (§4) FIG. 6A, FIG. 6B, FIG. 6C, FIG. 6D, and FIG. 6E depict graphs showing that 25-HC has an NMDAR-independent protecting effect on OGD-induced cell death. (FIG. 6A) Survival rate was compared between control, OGD (3 hour), OGD (3 hour)+MK-801, and OGD (3 hour) +MK-801+25-HC. […] 25-HC protected against the MK-801 insensitive OGD-induced cell death. (n=12 cultures for each group, one-way repeated measures ANOVA with Bonferroni's post hoc test, *p<0.05, ***p<0.001). […] (FIG. 6C) H2O2 (100 μM, 1 hour treatment) toxicity was used to test neuroprotection of 25-HC. 25-HC again yielded mild but reliable protection (N=10 cultures for each group, one-way repeated measures ANOVA with Bonferroni's post hoc test, *P<0.05). (FIG. 6D) and (FIG. 6E) Neither WT nor CYP46A1 knockout hippocampal neuron cultures from C571Bl/6 mice was sensitive to the mild NMDAR independent neuroprotective effect of 25-HC (N=7 cultures for each group; P>0.05).
(§5) To further test the NMDAR-independence neuroprotective effect, a model of oxidative damage: H2O2 induced toxicity was used.

[7] = system: hippocampal neuron cultures from C571Bl/6 mice; test: NMDAR-independent neuroprotection in WT and CYP46A1 knockout mouse hippocampal neuron cultures; type: cell-based
Procedure: as §4, §5
Cell culture. All animal care and experimental procedures were consistent with National Institutes of Health guidelines and were approved by the Washington University Animal Studies Committee. Studies involving animals are reported in accordance with the ARRIVE guidelines for reporting experiments involving animals (12, 13). […]

Structure (SMILES): CC(C)[C@@H](O)CC[C@@H](C)[C@H]1CC[C@H]2[C@@H]3CC=C4C[C@@H](O)CC[C@]4(C)[C@H]3CC[C@]12C [24S-HC, 24S-hydroxycholesterol]
- NMDA toxicity with 24S-HC co-treatment ([1]; 8 μM NMDA): exacerbated NMDA toxicity
- exogenous concentration needed to potentiate NMDAR function [2]: ~50 nM
- concentration at which effects on NMDAR function saturate [3]: ~10 µM
- survival compared to OGD alone ([4]; 24S-HC 0.5 μM): significantly poorer survival
- OGD-induced cell death / survival rate ([4]; 24S-HC 2 μM, exogenous application, WT rat hippocampal cultures 14 days in vitro): significantly poorer survival; also recorded: enhanced OGD-induced cell death; also recorded: significantly lower survival rate
- effect on survival when administered alone (no OGD) ([4]; 24S-HC alone): Consistent effects of 24S-HC were not observed
- concentration dependence of OGD-induced cell death ([4]; 24S-HC over a range of 50 nM to 2 μM, rat cultures): depended on 24S-HC concentration

Structure (SMILES): C[C@H](CCCC(C)(C)O)[C@H]1CC[C@H]2[C@@H]3CC=C4C[C@@H](O)CC[C@]4(C)[C@H]3CC[C@]12C [25-HC, 5-cholestene-3β,25-diol]
- neuroprotection against MK-801 insensitive OGD-induced cell death ([5]; 10 μM 25-HC in the presence of 20 μM MK-801, OGD 3 hours): mild but significant neuroprotection
- neuroprotection against H2O2 induced toxicity [6]: mild but consistent neuroprotective effect
- 24S-HC exacerbation of NMDA toxicity ([1]; 10 μM 25-HC, 8 μM NMDA + 24S-HC): significantly alleviated
- neuroprotection against NMDA-induced cell death ([1]; 10 μM 25-HC, NMDA 8 μM or 20 μM): no neuroprotection
- antagonism of 24S-HC effects on NMDARs [3]: non-competitively antagonizes
- OGD-induced cell death without exogenous 24S-HC ([4]; 10 μM 25-HC incubation during the OGD insult): alleviated
- SGE-201-exacerbated OGD injury ([4]; 10 μM 25-HC with 1 μM SGE-201): alleviated
- survival rates, treatment before versus after OGD insult ([4]; 25-HC before or after OGD insult): comparable survival rates
- OGD-induced cell death relative to 24S-HC and OGD alone ([4]; co-treatment 10 μM 25-HC and 2 μM 24S-HC): significantly alleviated OGD-induced cell death
- NMDAR-independent neuroprotective effect ([7]; CYP46A1 knockout mouse cultures): did not extend
- NMDAR-independent neuroprotective effect ([7]; WT mouse cultures): did not extend

Structure (SMILES): N[C@@H](CCCP(=O)(O)O)C(=O)O [APV]
- OGD-induced cell death in AAV-CYP-GFP and AAV-GFP-infected neuron cultures ([4]; APV): prevented OGD-induced cell death
- neuroprotection against OGD ([4]; administered before and during OGD): highly neuroprotective
- neuroprotection against OGD ([4]; administered during the latent period following OGD insult): much less effective
- OGD-induced cell death exacerbated by 24S-HC, effect of NMDAR antagonist [4]: rescued

Structure (SMILES): C[C@]12N[C@H](Cc3ccccc31)c1ccccc12 [MK-801]
- cell death after OGD 3 hours ([5]; 20 μM MK-801): partially rescued
- normalized survival ([5]; OGD 3 hours + 20 μM MK-801): 0.66±0.03
- OGD-induced cell death exacerbated by 24S-HC, effect of NMDAR antagonist [4]: prevented

Structure (SMILES): CN[C@H](CC(=O)O)C(=O)O [NMDA]
- cell survival ([1]; NMDA at 8 μM and 20 μM): significantly reduced cell survival

Structure (SMILES): C[C@H](CCC(C)(C)O)[C@H]1CC[C@H]2[C@@H]3CC=C4C[C@@H](O)CC[C@]4(C)[C@H]3CC[C@]12C [SGE-201]
- exacerbation of OGD toxicity ([5]; 1 μM SGE-201 in the presence of 20 μM MK-801): failed to exacerbate OGD toxicity
- normalized survival ([5]; OGD 3 hours + 20 μM MK-801 + 1 μM SGE-201): 0.64±0.04
- OGD injury ([4]; 1 μM SGE-201): exacerbated OGD injury
